Target: T1, SHP2 (Homo sapiens, UniProt Q06124)
T1 sequence (Q06124 1-593): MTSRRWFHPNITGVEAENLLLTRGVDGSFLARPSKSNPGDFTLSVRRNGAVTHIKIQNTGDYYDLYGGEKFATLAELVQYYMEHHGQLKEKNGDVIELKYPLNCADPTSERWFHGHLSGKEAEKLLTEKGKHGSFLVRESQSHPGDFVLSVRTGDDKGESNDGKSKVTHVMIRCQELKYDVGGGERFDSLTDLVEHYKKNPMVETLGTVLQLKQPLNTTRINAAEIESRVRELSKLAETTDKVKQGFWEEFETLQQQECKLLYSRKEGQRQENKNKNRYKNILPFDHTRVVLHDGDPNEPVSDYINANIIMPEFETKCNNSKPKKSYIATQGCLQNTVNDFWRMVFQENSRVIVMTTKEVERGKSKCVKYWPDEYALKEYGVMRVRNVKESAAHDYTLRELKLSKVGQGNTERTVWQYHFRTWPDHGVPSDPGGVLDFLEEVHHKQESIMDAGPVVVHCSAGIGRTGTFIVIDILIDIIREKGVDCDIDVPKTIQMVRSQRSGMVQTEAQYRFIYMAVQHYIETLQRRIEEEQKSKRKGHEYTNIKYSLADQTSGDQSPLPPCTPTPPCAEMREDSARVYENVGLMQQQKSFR
Test: SHP2 allosteric inhibitor enzyme activity assay (DiFMUP fluorescence)
Format: biochemical
Conditions: class symbols
Description: SHP2 is activated by the binding of a bis-tyrosyl-phosphorylated peptide to its Src homologous 2 (SH2) domain. This subsequent activation step leads to the release of the automatic inhibition interface of SHP2, which in turn activates the SHP2 protein tyrosine phosphatase (PTP) and can be used for substrate recognition and reaction catalysis. The catalytic activity of SHP2 was monitored using the alternative DiFMUP in a rapid fluorescence assay format.
Assay procedures are as follows:
(1) Compound Formulation:
The compound of the present invention (10 mM stock solution) was diluted to a suitable multiple with 100% DMSO and assay buffer, and the final test concentration of the compound of the present invention was 1 μM, 0.333 μM, 0.111 μM, 0.0370 μM, 0.0124 μM, 0.00412 μM, 0.00137 μM, 0.00046 μM, 0.00015 μM, 0.00 μM;
(2) Preparation of Enzyme Reaction Working Fluid:
SHP2 enzyme activity was performed using a final reaction volume of 50 μL and the following assay buffer conditions in 96-well black polystyrene plates (flat bottom, low flange, non-bonding surface) (Perki Elmer, Cat #6005270) at room temperature: 60 mM HEPES, 75 mM NaCl, 75 mM KCl, 0.05% BRIJ-35, 1 mM EDTA, 5 mM DTT.
(3) Enzyme Catalytic Reaction and Data Monitoring:
Compounds of the present invention were added to the corresponding 96-well plates, and no compound and enzyme were provided as blank test wells. SHP2 Activating Peptide (IRS1_pY1172 (dPEG8)pY1222) was placed on ice for melting, and 0.5 μM was added per well, then 0.2 ng SHP2 protein samples were added to corresponding well plates, and incubated at room temperature for 1 hour. Substrate DiFMUP (Invitrogen, Cat #D6567) was added to the reaction at room temperature for 1 hour. Fluorescence signals were monitored using an enzyme reader (Envision, Perki Elmer) using excitation wavelengths and emission wavelengths of 340 nm and 450 nm, respectively.
Inhibition %=[1−(Conversion_sample−Conversion_min)/(Conversion_max−Conversion_min)]*100% Calculation formula: […]
where: Conversion_sample is the mean reading of the sample wells; Conversion_min is the mean reading of blank control wells, representing the reading of the wells without enzyme; Conversion_max is the mean of positive control wells, representing the reading of the wells without inhibitor.
The dose-response curve is fitted with GraphPad Prism software and IC50 was calculated by the “log[inhibitor] vs. response-variable slope” program.

First: CN1CC=C(c2n[nH]c3nc(N4CCC5(CC4)Cc4ccccc4[C@H]5N)[nH]c(=O)c23)c2ccccc21 [Compound 178, (S)-6-(1-amino-1,3-dihydrospiro[indene-2,4′-piperidin]-1′-yl)-3-(1-methyl-1,2-dihydroquinolin-4-yl)-1,5-dihydro-4H-pyrazolo[3,4-d]pyrimidin-4-one, reference compound]
Second: CC1(C)CC1(c1ccccc1)c1n[nH]c2nc(N3CCC4(CC3)Cc3ccccc3[C@H]4N)[nH]c(=O)c12 (stereo partly drawn) [Example 5, 6-((S)-1-amino-1,3-dihydrospiro[indene-2,4′-piperidin]-1′-yl)-3-(2,2-dimethyl-1-phenylcyclopropyl)-1,5-dihydro-4H-pyrazolo[3,4-d]pyrimidin-4-one]
The IC50 of the first is lower: at most 0.02 µM for the first, over 0.06 µM for the second.

`N[C@@H]1c2ccccc2CC12CCN(c1cnc3c(C4(c5ccccc5)CC4)n[nH]c3n1)CC2` [Example 2, (S)-1′-(3-(1-phenylcyclopropyl)-1H-pyrazolo[3,4-b]pyrazin-6-yl)-1,3-dihydrospiro[indene-2,4′-piperidin]-1-amine] and `N[C@@H]1c2ccccc2CC12CCN(c1nc3[nH]nc(C4(c5ccccc5)CC4)c3c3nncn13)CC2` [Example 3] cannot be ordered by IC50: at most 0.02 µM for the first, at most 0.02 µM for the second.

First: N[C@@H]1c2ccccc2CC12CCN(c1nc3[nH]nc(C4(c5ccccc5)CC4(Cl)Cl)c3c(=O)[nH]1)CC2 (stereo partly drawn) [Example 7, 6-((S)-1-amino-1,3-dihydrospiro[indene-2,4′-piperidin]-1′-yl)-3-(2,2-dichloro-1-phenylcyclopropyl)-1,5-dihydro-4H-pyrazolo[3,4-d]pyrimidin-4-one]
Second: N[C@@H]1c2ccccc2CC12CCN(c1nc3[nH]nc(C4(c5ccccc5Cl)CC4)c3c(=O)[nH]1)CC2 [Example 12, (S)-6-(1-amino-1,3-dihydrospiro[indene-2,4′-piperidin]-1′-yl)-3-(1-(2-chlorophenyl)cyclopropyl)-1,5-dihydro-4H-pyrazolo[3,4-d]pyrimidin-4-one]
The IC50 of the first is higher: over 0.06 µM for the first, at most 0.02 µM for the second.

`N[C@@H]1c2ccccc2CC12CCN(c1nc3[nH]nc(C4(c5ccc6ncccc6c5)CC4)c3c(=O)[nH]1)CC2` [Example 14, (S)-6-(1-amino-1,3-dihydrospiro[indene-2,4′-piperidin]-1′-yl)-3-(1-(quinolin-6-yl)cyclopropyl)-1,5-dihydro-4H-pyrazolo[3,4-d]pyrimidin-4-one] and `N[C@@H]1c2ccccc2CC12CCN(c1nc3[nH]nc(C4(c5ccc6nccnc6c5)CC4)c3c(=O)[nH]1)CC2` [Example 32, (S)-6-(1-amino-1,3-dihydrospiro[indene-2,4′-piperidin]-1′-yl)-3-(1-(quinoxalin-6-yl)cyclopropyl)-1,5-diliydro-4H-pyrazolo[3,4-d]pyrimidin-4-one] cannot be ordered by IC50: at most 0.02 µM for the first, 0.02 to 0.06 µM for the second.

`N[C@@H]1c2ccccc2CC12CCN(c1nc3[nH]nc(C4(c5ccccc5C(F)(F)F)CC4)c3c(=O)[nH]1)CC2` [Example 15, (S)-6-(1-amino-1,3-dihydrospiro[indene-2,4′-piperidin]-1′-yl)-3-(1-(2-(trifluoromethyl)phenyl)cyclo-propyl)-1,5-dihydro-4H-pyrazolo[3,4-d]pyrimidin-4-one] and `N[C@@H]1c2ccccc2CC12CCN(c1nc3[nH]nc(C4(c5ccccc5OC(F)(F)F)CC4)c3c(=O)[nH]1)CC2` [Example 16, (S)-6-(1-amino-1,3-dihydrospiro[indene-2,4′-piperidin]-1′-yl)-3-(1-(2-(trifluoromethoxy)phenyl)cyclo-propyl)-1,5-dihydro-4H-pyrazolo[3,4-d]pyrimidin-4-one] cannot be ordered by IC50: at most 0.02 µM for the first, at most 0.02 µM for the second.

`N[C@@H]1c2ccccc2CC12CCN(c1nc3[nH]nc(C4(c5ccc(F)c(F)c5)CC4)c3c(=O)[nH]1)CC2` [Example 20, (S)-6-(1-amino-1,3-dihydrospiro[indene-2,4′-piperidin]-1′-yl)-3-(1-(3,4-difluorophenyl)cyclopropyl)-1,5-dihydro-4H-pyrazolo[3,4-d]pyrimidin-4-one] and `N[C@@H]1c2ccccc2CC12CCN(c1nc3[nH]nc(C4(c5ccnc(Cl)c5)CC4)c3c(=O)[nH]1)CC2` [Example 25, (S)-6-(1-amino-1,3-dihydrospiro[indene-2,4′-piperidin]-1′-yl)-3-(1-(2-chloropyridin-4-yl)cyclopropyl)-1,5-dihydro-4H-pyrazolo[3,4-d]pyrimidin-4-one] cannot be ordered by IC50: at most 0.02 µM for the first, at most 0.02 µM for the second.

`Nc1ccccc1C1(c2n[nH]c3nc(N4CCC5(CC4)Cc4ccccc4[C@H]5N)[nH]c(=O)c23)CC1` [Example 22, (S)-6-(1-amino-1,3-dihydrospiro[indene-2,4′-piperidin]-1′-yl)-3-(1-(2-aminophenyl)cyclopropyl)-1,5-dihydro-4H-pyrazolo[3,4-d]pyrimidin-4-one] and `N[C@@H]1c2ccccc2CC12CCN(c1nc3[nH]nc(C4(c5ccccn5)CC4)c3c(=O)[nH]1)CC2` [Example 23, (S)-6-(1-amino-1,3-dihydrospiro[indene-2,4′-piperidin]-1′-yl)-3-(1-(pyridin-2-yl)cyclopropyl)-1,5-dihydro-4H-pyrazolo[3,4-d]pyrimidin-4-one] cannot be ordered by IC50: at most 0.02 µM for the first, at most 0.02 µM for the second.

`N#Cc1cc(C2(c3n[nH]c4nc(N5CCC6(CC5)Cc5ccccc5[C@H]6N)[nH]c(=O)c34)CC2)ccn1` [Example 26, (S)-4-(1-(6-(1-amino-1,3-dihydrospiro[indene-2,4′-piperidin]-1′-yl)-4-oxo-4,5-dihydro-1H-pyrazolo[3,4-d]pyrimidin-3-yl)cyclopropyl)picolinonitrile] and `COc1cc(C2(c3n[nH]c4nc(N5CCC6(CC5)Cc5ccccc5[C@H]6N)[nH]c(=O)c34)CC2)ccn1` [Example 28, (S)-6-(1-amino-1,3-dihydrospiro[indene-2,4′-piperidin]-1′-yl)-3-(1-(2-methoxypyridin-4-yl)cyclopropyl)-1,5-dihydro-4H-pyrazolo[3,4-d]pyrimidin-4-one] cannot be ordered by IC50: at most 0.02 µM for the first, at most 0.02 µM for the second.

`N[C@@H]1c2ccccc2CC12CCN(c1nc3[nH]nc(C4(c5ccnc(C(F)(F)F)c5)CC4)c3c(=O)[nH]1)CC2` [Example 27, (S)-6-(1-amino-1,3-dihydrospiro[indene-2,4′-piperidin]-1′-yl)-3-(1-(2-(trifluoromethyl)pyridin-4-yl)cyclopropyl)-1,5-dihydro-4H-pyrazolo[3,4-d]pyrimidin-4-one] and `N[C@@H]1c2ccccc2CC12CCN(c1nc3[nH]nc(C4(c5ccnc(NC6CC6)c5)CC4)c3c(=O)[nH]1)CC2` [Example 29, (S)-6-(1-amino-1,3-dihydrospiro[indene-2,4′-piperidin]-1′-yl)-3-(1-(2-(cyclopropylamino)pyridin-4-yl)cyclopropyl)-1,5-dihydro-4H-pyrazolo[3,4-d]pyrimidin-4-one] cannot be ordered by IC50: at most 0.02 µM for the first, at most 0.02 µM for the second.

`N[C@@H]1c2ccccc2CC12CCN(c1nc3[nH]nc(C4(c5ccnc(OC6CC6)c5)CC4)c3c(=O)[nH]1)CC2` [Example 30, (S)-6-(1-amino-1,3-dihydrospiro[indene-2,4′-piperidin]-1′-yl)-3-(1-(2-cyclopropoxypyridin-4-yl)cyclopropyl)-1,5-dihydro-4H-pyrazolo[3,4-d]pyrimidin-4-one] and `N[C@@H]1c2ccccc2CC12CCN(c1nc3[nH]nc(C4(c5ccnc(N6CCOCC6)c5)CC4)c3c(=O)[nH]1)CC2` [Example 31, (S)-6-(1-amino-1,3-dihydrospiro[indene-2,4′-piperidin]-1′-yl)-3-(1-(2-morpholinopyridin-4-yl)cyclopropyl)-1,5-dihydro-4H-pyrazolo[3,4-d]pyrimidin-4-one] cannot be ordered by IC50: at most 0.02 µM for the first, 0.02 to 0.06 µM for the second.

Reference: patent publication US20230192705A1, “SHP2 INHIBITORS, COMPOSITIONS AND USES THEREOF” (Betta Pharmaceuticals Co., Ltd, priority 2020, published 2023)
